Common to all, as to assay type: biochemical
The target in test [1] is T1, MMP-8 (Homo sapiens, UniProt P22894).
T1 construct: purchased R&D Systems 908-MP
The test is described as follows: In vitro MMP-8 inhibition test. A digest of the protocol:
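APMA-activated recombinant MMP-8 (final e.g. 0.5 nM) preincubated with compound in DMSO (e.g. 1 nM–30 μM) in 50 mM Tris/HCl pH 7.5, 10 mM CaCl2, 150 mM NaCl, 0.05% Brij-35. Reaction started with quenched Mca-Pro-Leu-Gly-Leu-Dpa(Dnp)-Ala-Arg-NH2 substrate (e.g. 10 μM); fluorescence (ex 320/em 410 nm) followed e.g. 120 min at 32° C; IC50 at 50% signal.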

Test [2] has as its target T2, MMP-16 (Homo sapiens, UniProt P51512).
T2 construct: purchased R&D Systems 1785-MP
Description: In vitro MMP-16 inhibition test. Put shortly: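 Furin-activated recombinant MMP-16 (e.g. 1 nM) in 50 mM Tris/HCl pH 7.5, 10 mM CaCl2, 150 mM NaCl and 0.05% Brij-35 received compound in DMSO (e.g. 1 nM–30 μM), then 5 μM Mca-Lys-Pro-Leu-Gly-Leu-Dpa(Dnp)-Ala-Arg-NH2. Fluorescence (ex 320/em 410 nm) was followed, e.g. over 120 min at 32 °C. IC50 is the concentration halving the signal.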

Test [3] addresses T3, human macrophage elastase (HME/hMMP-12) (Homo sapiens, UniProt P39900).
T3 construct: 0.5 nM HME; purchased R&D Systems 917-MP
Description: In vitro HME inhibition test (standard or high-sensitivity). The following applies: in some cases mean values. A digest of the protocol:
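Fluorogenic assay: 0.5 nM autoactivated HME with 5 µM Mca-Pro-Leu-Gly-Leu-Glu-Glu-Ala-Dap(Dnp)-NH2 in HEPES pH 7.4 buffer (NaCl, CaCl2, ZnCl2, EDTA, Brij), 2 h at 37 °C; ex 323/em 393 nm. IC50 from fluorescence versus concentration. High-sensitivity format: ~0.05 nM enzyme, ~16 h incubation.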

Test [4] concerns the target T4, MMP-3 (Homo sapiens, UniProt P08254).
T4 construct: purchased R&D Systems 513-MP
The test is described as follows: In vitro MMP-3 inhibition test. Put shortly:
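APMA-activated recombinant MMP-3 (e.g. 2 nM final) preincubated with compound in 50 mM Tris/HCl pH 7.5, 10 mM CaCl2, 150 mM NaCl, 0.05% Brij-35; quenched Mca/Dnp peptide substrate (e.g. 10 μM) started the reaction. Fluorescence (ex 320/em 410 nm) followed e.g. 120 min at 32° C; IC50 at 50% signal.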

For 14 compounds, IC50 results are on record in patent US20170022171A1, “2,5-DISUBSTITUTED CYCLOPENTANECARBOXYLIC ACIDS AND THEIR USE” (Bayer Pharma Aktiengesellschaft, priority 2014, published 2017).

T4 sequence (P08254 100-477): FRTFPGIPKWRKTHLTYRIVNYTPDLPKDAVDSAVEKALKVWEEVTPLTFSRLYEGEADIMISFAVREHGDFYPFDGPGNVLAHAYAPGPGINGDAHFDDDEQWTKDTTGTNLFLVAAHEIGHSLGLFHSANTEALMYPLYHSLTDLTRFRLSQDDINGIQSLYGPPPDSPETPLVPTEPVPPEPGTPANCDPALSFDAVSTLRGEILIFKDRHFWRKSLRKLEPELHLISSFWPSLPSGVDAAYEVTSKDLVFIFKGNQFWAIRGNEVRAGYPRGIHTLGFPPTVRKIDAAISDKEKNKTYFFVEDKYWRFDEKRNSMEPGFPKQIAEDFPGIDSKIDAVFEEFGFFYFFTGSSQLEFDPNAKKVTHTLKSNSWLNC
T1 sequence (P22894 101-467): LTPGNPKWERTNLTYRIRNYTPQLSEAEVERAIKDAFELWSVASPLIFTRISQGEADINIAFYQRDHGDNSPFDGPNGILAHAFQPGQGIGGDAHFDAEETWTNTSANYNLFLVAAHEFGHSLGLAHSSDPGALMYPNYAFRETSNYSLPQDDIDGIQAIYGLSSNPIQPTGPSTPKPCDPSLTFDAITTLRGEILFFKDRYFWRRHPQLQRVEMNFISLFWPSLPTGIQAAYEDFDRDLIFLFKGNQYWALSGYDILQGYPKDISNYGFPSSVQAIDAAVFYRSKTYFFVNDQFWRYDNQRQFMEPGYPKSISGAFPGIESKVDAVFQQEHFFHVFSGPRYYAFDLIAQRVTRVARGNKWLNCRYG
T2 sequence (P51512 120-564 limits assumed): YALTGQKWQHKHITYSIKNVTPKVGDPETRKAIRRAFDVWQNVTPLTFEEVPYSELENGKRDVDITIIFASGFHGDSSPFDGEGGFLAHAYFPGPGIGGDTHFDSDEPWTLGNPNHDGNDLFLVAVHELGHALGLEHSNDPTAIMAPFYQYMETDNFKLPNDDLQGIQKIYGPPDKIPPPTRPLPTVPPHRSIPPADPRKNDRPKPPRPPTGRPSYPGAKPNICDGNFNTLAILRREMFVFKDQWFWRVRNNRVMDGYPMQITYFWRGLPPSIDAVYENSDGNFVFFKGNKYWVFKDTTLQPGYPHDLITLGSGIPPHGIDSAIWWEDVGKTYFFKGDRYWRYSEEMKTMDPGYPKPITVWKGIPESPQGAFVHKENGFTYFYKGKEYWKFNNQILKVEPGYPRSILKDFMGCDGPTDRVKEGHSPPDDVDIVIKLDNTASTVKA
T3 sequence (P39900 106-470): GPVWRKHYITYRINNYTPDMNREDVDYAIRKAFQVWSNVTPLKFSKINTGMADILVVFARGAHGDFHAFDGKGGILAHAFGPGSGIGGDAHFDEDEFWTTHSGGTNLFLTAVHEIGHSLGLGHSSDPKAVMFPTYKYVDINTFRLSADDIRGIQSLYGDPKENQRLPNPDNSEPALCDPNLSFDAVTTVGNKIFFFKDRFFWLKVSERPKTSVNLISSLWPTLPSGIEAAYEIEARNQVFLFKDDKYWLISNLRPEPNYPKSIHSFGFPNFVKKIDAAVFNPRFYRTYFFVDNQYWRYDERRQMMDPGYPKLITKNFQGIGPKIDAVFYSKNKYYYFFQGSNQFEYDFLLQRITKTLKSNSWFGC

For `O=C(O)[C@H]1[C@H](Cn2nnc3ccc(C(F)(F)F)cc3c2=O)CC[C@@H]1C(=O)c1ccc(OCC2CCCCC2)cc1` (racemic) [Example 40, (+/−)-(1RS,2RS,5SR)-2-[4-(Cyclohexylmethoxy)benzoyl]-5-{[4-oxo-6-(trifluoromethyl)-1,2,3-benzotriazin-3(4H)-yl]methyl}cyclopentanecarboxylic acid], the IC50 turned out to be 6.3 nM in test [1], 920 nM in test [2], 0.048 nM in test [3] and 180 nM in test [4].

Consider `O=C(O)[C@@H]1[C@@H](Cn2nnc3ccc(C(F)(F)F)cc3c2=O)CC[C@H]1C(=O)c1ccc(OCC2CCCCC2)cc1` (single isomer, unassigned) [Example 41, (+)-(1RS,2RS,5SR)-2-[4-(Cyclohexylmethoxy)benzoyl]-5-{[4-oxo-6-(trifluoromethyl)-1,2,3-benzotriazin-3(4H)-yl]methyl}cyclopentanecarboxylic acid], for which the IC50 in test [1] is 1.6 nM; in test [2], 270 nM; in test [3], 0.01 nM; in test [4], 41 nM.

With `O=C(O)[C@@H]1[C@@H](Cn2nnc3ccc(C(F)(F)F)cc3c2=O)CC[C@H]1C(=O)c1ccc(OCCC2CCCC2)cc1` (single isomer, unassigned) [Example 55, (+)-(1RS,2RS,5SR)-2-[4-(2-Cyclopentylethoxy)benzoyl]-5-{[4-oxo-6-(trifluoromethyl)-1,2,3-benzotriazin-3(4H)-yl]methyl}cyclopentanecarboxylic acid], the IC50 in test [1] was determined as 30 nM; in test [2], 5100 nM; in test [3], 0.037 nM; in test [4] it was 440 nM.

As to `Cc1ccc2nnn(C[C@H]3CC[C@@H](C(=O)c4ccc(OCc5cccc(C(F)(F)F)c5)cc4)[C@@H]3C(=O)O)c(=O)c2c1` (single isomer, unassigned) [Example 101, (+)-(1RS,2SR,5RS)-2-[(6-Methyl-4-oxo-1,2,3-benzotriazin-3(4H)-yl)methyl]-5-(4-{[3-(trifluoromethyl)benzyl]oxy}benzoyl)cyclopentanecarboxylic acid], the half-maximal inhibitory concentration (IC50) in test [1] is 29 nM; in test [2], 880 nM; in test [3], 0.086 nM; in test [4], 880 nM.

As for `Cc1ccc2nnn(C[C@H]3CC[C@@H](C(=O)c4ccc(OCc5cccc(OC(F)(F)F)c5)cc4)[C@@H]3C(=O)O)c(=O)c2c1` (single isomer, unassigned) [Example 110, (+)-(1RS,2SR,5RS)-2-[(6-Methyl-4-oxo-1,2,3-benzotriazin-3(4H)-yl)methyl]-5-(4-{[3-(trifluoromethoxy)benzyl]oxy}benzoyl)cyclopentanecarboxylic acid], the IC50 came to 120 nM in test [1], 2100 nM in test [2], 0.087 nM in test [3] and 920 nM in test [4].

Turning to `O=C(O)[C@H]1[C@H](Cn2nnc3ccc(C(F)(F)F)cc3c2=O)CC[C@@H]1C(=O)c1ccc(OCCCc2ccccc2)cc1` (racemic) [Example 39, (+/−)-(1RS,2SR,5RS)-2-{[4-Oxo-6-(trifluoromethyl)-1,2,3-benzotriazin-3(4H)-yl]methyl}-5-[4-(3-phenylpropoxy)benzoyl]cyclopentanecarboxylic acid], the IC50 in test [1] was 290 nM; in test [2], 14000 nM; in test [3] it was 0.044 nM; in test [4] it was 420 nM.

In the case of `O=C(O)[C@H]1[C@H](Cn2nnc3ccc(C(F)(F)F)cc3c2=O)CC[C@@H]1C(=O)c1ccc(OCc2cccc(C(F)(F)F)c2)cc1` (racemic) [Example 18, (+/−)-(1RS,2SR,5RS)-2-{[4-Oxo-6-(trifluoromethyl)-1,2,3-benzotriazin-3(4H)-yl]methyl}-5-(4-{[3-(trifluoromethyl)benzyl]oxy}benzoyl)cyclopentanecarboxylic acid], the 50% inhibitory concentration (IC50) was 61 nM in test [1], 4000 nM in test [2], 0.11 nM in test [3] and 1000 nM in test [4].

For the compound `O=C(O)[C@H]1[C@H](Cn2nnc3ccccc3c2=O)CC[C@@H]1C(=O)c1ccc(OCc2ccc(F)cc2)cc1` (racemic) [Example 1, (+/−)-(1RS,2RS,5SR)-2-{4-[(4-Fluorobenzyl)oxy]benzoyl}-5-[(4-oxo-1,2,3-benzotriazin-3(4H)-yl)methyl]cyclopentanecarboxylic acid], the IC50 in test [1] worked out at 2.5 nM; in test [2], 130 nM; in test [3] it was 0.052 nM; in test [4], 170 nM.

As to `Cc1ccc2nnn(C[C@H]3CC[C@@H](C(=O)c4ccc(OCc5ccccc5)cc4)[C@@H]3C(=O)O)c(=O)c2c1` (single isomer, unassigned) [Example 92, (+)-(1RS,2RS,5SR)-2-[4-(Benzyloxy)benzoyl]-5-[(6-methyl-4-oxo-1,2,3-benzotriazin-3(4H)-yl)methyl]cyclopentanecarboxylic acid], the IC50 in test [1] stood at 2.4 nM; in test [2], 110 nM; in test [3] it was 0.048 nM; in test [4], 150 nM.

Take `CCCCCCOc1ccc(C(=O)[C@@H]2CC[C@H](Cn3nnc4ccc(C)cc4c3=O)[C@H]2C(=O)O)cc1` (single isomer, unassigned) [Example 121, (+)-(1RS,2RS,5SR)-2-[4-(Hexyloxy)benzoyl]-5-[(6-methyl-4-oxo-1,2,3-benzotriazin-3(4H)-yl)methyl]cyclopentanecarboxylic acid]: the IC50 in test [1] worked out at 18 nM; in test [2], 1900 nM; in test [3] it was 0.078 nM; in test [4], 410 nM.

With `O=C(O)[C@@H]1[C@@H](Cn2nnc3ccc(C(F)(F)F)cc3c2=O)CC[C@H]1C(=O)c1ccc(OCCC2CCCCC2)cc1` (single isomer, unassigned) [Example 52, (+)-(1RS,2RS,5SR)-2-[4-(2-Cyclohexylethoxy)benzoyl]-5-{[4-oxo-6-(trifluoromethyl)-1,2,3-benzotriazin-3(4H)-yl]methyl}cyclopentanecarboxylic acid], the IC50 in test [1] came out at 38 nM; in test [2], 4600 nM; in test [3], 0.017 nM; in test [4], 380 nM.

Consider `O=C(O)[C@H]1[C@H](Cn2nnc3ccc(C(F)(F)F)cc3c2=O)CC[C@@H]1C(=O)c1ccc(OCc2ccc(F)cc2)cc1` (racemic) [Example 12, (+/−)-(1RS,2RS,5SR)-2-{4-[(4-Fluorobenzyl)oxy]benzoyl}-5-{[4-oxo-6-(trifluoromethyl)-1,2,3-benzotriazin-3(4H)-yl]methyl}cyclopentanecarboxylic acid], for which the IC50 in test [1] was found to be 0.67 nM; in test [2], 86 nM; in test [3] it was 0.019 nM; in test [4], 28 nM.

Turning to `O=C(O)[C@H]1[C@H](Cn2nnc3ccccc3c2=O)CC[C@@H]1C(=O)c1ccc(OCc2cccc(Cl)c2)cc1` (racemic) [Example 2, (+/−)-(1RS,2RS,5SR)-2-{4-[(3-Chlorobenzyl)oxy]benzoyl}-5-[(4-oxo-1,2,3-benzotriazin-3(4H)-yl)methyl]cyclopentanecarboxylic acid], the IC50 in test [1] was found to be 440 nM; in test [2], 1000 nM; in test [3], 0.51 nM; in test [4] it was 2100 nM.

On to `CCCCOc1ccc(C(=O)[C@@H]2CC[C@H](Cn3nnc4ccc(C(F)(F)F)cc4c3=O)[C@H]2C(=O)O)cc1` (single isomer, unassigned) [Example 67, (+)-(1RS,2RS,5SR)-2-(4-Butoxybenzoyl)-5-{[4-oxo-6-(trifluoromethyl)-1,2,3-benzotriazin-3(4H)-yl]methyl}cyclopentanecarboxylic acid], for which the 50% inhibitory concentration (IC50) in test [1] is 1.6 nM; in test [2], 180 nM; in test [3] it was 0.015 nM; in test [4], 140 nM.

As a reminder, the IC50 is the concentration that gives 50% inhibition. A lower IC50 goes with higher potency.
